Measured values reported in patent US10201559B2, “Compositions of selenoorganic compounds and methods of use thereof” (Alltech, Inc., priority 2014, dated 2019).
Entries after “also recorded” stand apart in the source; their conditions may differ.

Experiments:
IMR-32 cells [1] = assay: Quantitative analysis of mitochondrial potential in IMR-32 cells; assay type: cell-based, human; conditions: for enhanced MT potential compared with sulfur analogs: 24 hr
Method: Similar to the above studies on AML-12 cells, the mitochondrial potential per cell in living IMR-32 cells was determined using the Bio-TeK Synergy HT Multi-Mode fluorescence microplate reader with the following modifications. To improve the attachment of IMR-32 cells to culture dishes, cell culture plates were precoated with 0.1% gelatin (Sigma, St. Louis, Mo.). 2×10^4 cells per a 96-well were seeded on gelatinized 96-well plates for the above studies. To reduce the cell dislodgment, Mitotracker orange and Hoechst 33342 fluorescent dyes (diluted in culture media) were directly added to each well after vehicle- or compound-treatments. After dye incubation, cell culture media were carefully replaced with 1× PBS for the quantitation analysis of fluorescence on the microplate reader. Eight samples per each treatment were examined for the above analysis, and the experiments were repeated at least five times. Data are presented as mean±sem of eight samples.

Nicastrin = assay: Western blot, Nicastrin in IMR-32 cells; assay type: cell-based, human; conditions: 150 ppb, 24 hr
Method: (§1) IMR-32 and AML12 cells were seeded on 6-well plates, and then treated with vehicle and various compounds for 6 and 24 hr, as described above. After treatments, cells were rinsed with ice-cold PBS, and lysed in the ice-cold RIPA buffer containing complete proteinase and phosphotase inhibitors (Themo-Fisher Scientific, Waltham, Mass.) on ice for 30 min. Cell lysates were collected using a cell scraper and transfer pipette, and then centrifuged at 12000 g for 30 min at 4° C. to remove the DNA pellet and obtain the protein extract. Protein levels in the supernatant of these cell lysates were determined using the Pierce Micro-BCA protein assay kit (Themo Scientific-Piece Biotechnology, Rockford, Ill.) according to the manufacturer's protocol.
(§2) For Western blot analysis, five micrograms of total proteins from vehicle- and compound(s)-treated cells were subjected to SDS-PAGE gel separation, and then transferred to PVDF membranes, as described previously (Reddy, Liu et al. 2008 Science). Membranes were blocked in a phosphate-buffered saline (PBS) containing 5% (w/v) of bovine serum albumin (Sigma, St. Louis, Mo.), and incubated with specific primary antibodies followed by the incubation with HRP-conjugated anti-mouse or anti-rabbit secondary antibodies (1:5000 dilution, Cell Signaling Inc.). All primary antibodies except G6PC (Santa Cruz), Actb (Li-COR, Lincoln, Nebr.), Elf2bε and pElf2bε (Abcam, Cambridge, Mass.) were purchased from Cell Signaling Inc. Positive signals on the membrane blots were detected using the Amersham's enhanced chemiluminescence Western Blotting Prime Detection reagents (GE healthcare Lifescience, Pittsburgh, Pa.). Images of these luminescence signals on the membrane blots were captured using the LI-COR Odyssey Fc Image system (Lincoln, Nebr.). […] Protein band densities in the Western blots were determined using the Li-COR Image studio software or NIH ImageJ software, and then normalized by Actb level in each sample. […]

AML-12 cells [2] = assay: Quantitative analysis of mitochondrial potential in AML-12 cells; assay type: cell-based, mouse; conditions: 150 ppb (of each compound), 6 and 24 hr
Method: For AML-12 liver cells, cells were amplified in 10% FBS Dulbecco's modified Eagle's medium and Ham's F12 medium (1:1) (DMEM/F12) media supplemented with 1× Insulin/Transferin/Selenium (ITS, Sigma). Then equal number of cells (1×10^4 cells/well) were seeded on Corning 96-well clear-bottom and dark-wall cell culture plates (VWR, Radnor, Pa.), cultured in ITS-free 10% FBS DMEM/F12 media for 24 hr., and then subjected to the treatments of various compounds or combination of compounds for 6, 24, and 48 hr. Mitochondrial potential in living cells was determined by quantitative analysis of fluorescence intensities using the Mitotracker orange dye as described above. In addition, the above treated cells were also incubated with Hoechst 33342 dye (Invitrogen, Grand Island, N.Y.) to stain cell nuclei according to the Manufacturer's protocol. The fluorescent intensities of stained cell nuclei by Hoechst 33342 dye were also determined by the fluorescence microplate reader. The mitochondrial potential per cell in living cells was obtained by normalizing the fluorescence intensities of Mitotracker orange dye to the fluorescence intensities of Hoechst 33342 dye in each well. Eight samples per each treatment were examined for the above analysis and data are presented as mean±sem of eight samples.

pAKT = assay: Western blot, pAKT in IMR-32 cells; assay type: cell-based, human; conditions: 150 ppb
Method: as §1, §2

pElf2beS539 = assay: Western blot, pElf2beS539 in IMR-32 cells; assay type: cell-based, human; conditions: 150 ppb
Method: as §1, §2

pGSk3a = assay: Western blot, pGSk3a in AML-12 cells; assay type: cell-based, mouse; conditions: individual compounds, 6 or 24 hr
Method: as §1, §2

AML-12 cells [3] = assay: Cell viability assay, AML-12; assay type: cell-based, mouse; conditions: 48 hr
Method: (§3) Cell viability in cultured cells was determined using Promega's CellTiter96® AQueous One Solution Cell Proliferation Assay kits, according to the Manufacturer's protocol. In brief, equal number of C2C12 (1×10^4 cells/well), AML-12 (1×10^4 cells/well) and IMR-32 (2×10^4 cells/well) were seeded on 96-well clear plates (VWR) and treated with vehicle or compounds for 24, […] and/or 72 hr. Then, cultured cells were incubated with AQueous One solution (100 ul/per well) at 37° C. for 1 hr, and the absorbance of OD490 nm in each sample was determined by the Bio-Tek microplate reader. Cell viability in culture cells were determined by the subtraction of OD490 nm in cultured cells with the OD490 nm in plain culture media (without seeding of cells). Eight samples per each treatment were examined for the above analysis. Data are presented as Mean±sem of eight samples.

total Tau = assay: Western blot, total Tau in IMR-32 cells; assay type: cell-based, human; conditions: 150 ppb, 24 hr
Method: as §1, §2

PSEN = assay: Real-time RT-PCR, PSEN in IMR-32 cells; assay type: cell-based, human; conditions: individual compound
Method: Human IMR-32 cells were seeded on gelatinized 6-well (6.5×10^5 cells/well) or 24-well (1.3×10^5 cells/well) plates, while mouse liver AML-12 cells were cultured on uncoated 6-well (3.33×10^5 cells/well) or 24-well (6.7×10^4 cells/well) plates. Cells were treated with vehicle (control) or various compounds for 6, 24 or 48 hr. Total RNA from these cells was using Trizol (Invitrogen) according to the Manufacturer's protocol, and then incubated with DNase I to remove any potential contaminated genomic DNA. Then RNA samples were subjected to real-time PCR analysis using the Applied-Bioscience's RT kit and predesigned Taqman probes (Invitrogen), as described previously (Lan et al EMBO J 2003). Three to six samples were analyzed in each treatment group. Data were normalized by Actin B (Actb) or Glyceraldehyde Phosphate Dehydrogenase (Gapdh) levels in each sample, and are presented as mean±sem of 3-6 samples.

IMR-32 cells [4] = assay: Cell viability assay, IMR-32; assay type: cell-based, human; conditions: 24, 48 and 72 hr
Method: as §3

[5] = continuous 48 hr single treatment

SMILES | enhanced MT potential compared with respective sulfur analog(s) (IMR-32 cells [1]; 6 hr) | MT potential (IMR-32 cells [1]; 6 hr, compared to control) | enhanced MT potential compared with sulfur analogs (IMR-32 cells [1]) | MT potential (IMR-32 cells [1]; [5]) | MT potential (IMR-32 cells [1]; repeated treatments (24 hr + 24 hr), 150 ppb) | Nicastrin protein level (Nicastrin) | MT potential (AML-12 cells [2]) | pAKT protein levels (pAKT) | pElf2beS539 protein level (pElf2beS539) | increased phosphorylation of Gsk3a (pGSk3a) | cell viability (OD490 nm) (AML-12 cells [3]) | total Tau protein level (total Tau) | PSEN mRNA expression (PSEN; 24 hr) | cell viability (OD490 nm) (IMR-32 cells [4]) | PSEN mRNA expression (PSEN; 6 hr) | MT potential (IMR-32 cells [1]; repeated treatments (24 hr + 24 hr), 15 and 150 ppb)
C[Se]CC(NC(=O)CCC(N)C(=O)O)C(=O)O (centres unmarked) [compound E, gamma-glutamyl-methylseleno-cysteine] | more pronounced | significantly enhanced MT potential | more pronounced | did not affect MT potential | significantly enhanced MT potential | trend towards reduced Nicastrin protein expression | did not significantly affect MT potential | not visibly decreased | not affected | did not observed the increased phosphorylation | no toxic effects | significantly down-regulated | did not inhibit, but instead stimulated | lack of toxic effects |  | 
C[Se]C[C@H]1O[C@@H](n2cnc3c(N)ncnc32)C(O)C1O (stereo in doubt) [compound C, 5′-Methylselenoadenosine] |  | a trend towards elevated MT potential | more pronounced | did not affect MT potential |  | significant reduction | did not significantly affect MT potential | not visibly decreased | not affected | did not observed the increased phosphorylation | no toxic effects | did not affect total Tau protein level | significantly reduced | lack of toxic effects; also recorded: Improved neuronal cell survival | significantly reduced | 
Nc1ncnc2c1ncn2[C@@H]1O[C@H](C[Se]CC[C@@H](N)C(=O)O)C(O)C1O (some centres unmarked) [compound D, 5′-Selenoadenosyl homocysteine] | more pronounced | significantly enhanced MT potential | more pronounced | did not affect MT potential |  | trend towards reduced Nicastrin protein expression | did not significantly affect MT potential | not visibly decreased | not affected | did not observed the increased phosphorylation | no toxic effects | had no effect | did not inhibit, but instead stimulated | lack of toxic effects |  | significantly enhanced MT potential
